“Also recorded” adds a separate entry of the source. Like-named read-outs stand apart in the source and are kept apart here.
Columns and labels:
[1] = Serum P4 in neonatal rats after P4 treatment (P4-specific ELISA); assay type: in vivo; conditions: repeated daily injections of P4 (Oil-P4 group)
Method: FIG. 2. Pharmacokinetics of progesterone treatment in neonatal rats. Three-day-old rats were treated with 2.0 mg P4 Silastic capsule, (n=5-7), injected daily with 0.5 mg P4 for 7 days (n=5-9), or vehicle (n=5-9).
(§1) Experiments with Silastic capsules. Neonatal female rats (3-day-old [D3]) were divided into 3 groups for the treatment (Chart 1). The Control group was subcutaneously (sc) injected with sesame oil daily for 7-days. The Oil-P4 group was injected sc with progesterone (P4) (0.5 mg P4/50 μl oil) daily for 7-days. The sC-P4 group was implanted sc with a given single P4 Silastic capsule (sC-P4) (2 mg P4/5 μl oil in a Silastic capsule having dimensions: ID 1.02 mm, OD 2.16 mm, Length 8 mm). Sera were collected by tail clipping (n=5-7) on days 6, 10, 14 and 24, and serum P4 was measured by P4-specific ELISA kit (EIA5486, DRG International Inc., NJ). Uterine histology was examined in weeks 7 and 28. Collected uterine tissues were fixed in 4% paraformaldehyde. Tissues were washed with ethanol, processed, and embedded in paraffin wax. Paraffin-embedded tissue blocks were cut into 6 μm thick sections. For general histological observation, slides were stained with hematoxylin and eosin (HE staining). The number of uterine glands was counted from HE-stained uterine tissue sections (n=2-4). At 5-months-old, the estrous cycle was monitored for 10 days by vaginal cytology (n=2-4). […]

female rats = assay: Fertility test with fertility-proven male rats; assay type: in vivo; conditions: neonatally treated rats tested at 5 months
Method: Neonatal P4 Silastic capsule implant induces permanent infertility. Starting at 5-months of age, the estrous cycle was determined by microscopy of vaginal smears for 10 days (Table 1). […] After the estrous cycle observation, female rats were caged with fertility-proven male rats for 1 month to evaluate fertility. Seventy-five percent (¾) of the Control untreated and Oil-P4 groups were fertile, averaging 12 and 13 pups, respectively. By comparison, none of the sC-P4 was fertile.
as §1, with “Collected uterine tissues were fixed in 4% paraformaldehyde. Tissues were washed with ethanol, processed, and embedded in paraffin wax. Paraffin-embedded tissue blocks were cut into 6 μm thick sections. For general histological observation, slides were stained with hematoxylin and eosin (HE staining).” left out

uterine glands = conditions: cited from earlier work
uterine gland = conditions: repetitive injections of neonatal ewe lambs; oviduct, cervix, vagina not inhibited; cited from earlier work

Structure (SMILES)	maximum increase in serum P4 levels compared to the Control ([1]; 6 days after the start of injections)	time serum P4 remained significantly elevated ([1]; experimental day 16)	fertility outcome (female rats)	adenogenesis at PND 10 (uterine glands; mice treated with P4 during PND 3-5 or 7-9)	adenogenesis at PND 10 (uterine glands; mice treated with P4 during PND 3-9, 5-9, or 3-7)	uterine glands in adulthood (uterine glands; mice treated with P4 during PND 3-9)	uterine gland development on PND 20 (uterine glands; mice treated with P4 during PND 5-9 or 3-7)	adenogenesis (uterine gland)
CC(=O)[C@H]1CC[C@H]2[C@@H]3CCC4=CC(=O)CC[C@]4(C)[C@H]3CC[C@]12C [P4, progesterone]	2 fold	10 days	insufficient to achieve infertility	not	abolished adenogenesis	lacked glands in adulthood; also recorded: lack uterine glands in adulthood	resumption of uterine gland development	–
CC(=O)O[C@]1(C(C)=O)CC[C@H]2[C@@H]3CCC4=CC(=O)CC[C@@H]4[C@H]3[C@@H](C)C[C@@]21C [norgestomet]	–	–	–	–	–	–	–	irreversibly inhibits adenogenesis

Reference: patent US20250152606A1, “INDUCTION OF IRREVERSIBLE INFERTILITY IN FEMALE MAMMALIAN ANIMALS USING A SINGLE PROGESTERONE IMPLANT” (THE BOARD OF TRUSTEES OF THE UNIVERSITY OF ILLINOIS, priority 2022, published 2025)
